In PubChem BioAssay (NCI) one finds TGI and GI50 data, which are given here for 13 compounds.

SMILES strings stand for the structures. Several values for one entry are separate records, joined by “and”; a condition that tells them apart may be missing. Equal values may be shown once.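 Results reflect a 48-hour exposure of cells in 96-well plates to compound at five concentrations. Abbreviation: GI50, concentration required for 50% inhibition of growth. TGI is the concentration that stops growth completely.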

What all share (experiment): NCI tumour cell line growth inhibition, 48 h
The test system of test [1] is HCC-2998 colon.
Test [2] has as its system HL-60(TB) leukemia.
The subject of test [3] is MALME-3M melanoma.
Test [4] relates to NCI-H460 lung.
Test [5] relates to OVCAR-4 ovarian.
The subject of test [6] is OVCAR-8 ovarian.
Test [7] deals with RXF 393 renal.
In test [8] the test system is SF-295 CNS.
Test [9] relates to U251 CNS.
The subject of test [10] is LOX IMVI melanoma.

With `CCCCCC(=O)N[C@@H](c1ccccc1)C(O)C(=O)OC1C[C@@]2(O)C(OC(=O)c3ccccc3)C3[C@](C)(C(=O)[C@H](O)C(=C1C)C2(C)C)C(OC1OCC(O)C(O)C1O)C[C@H]1OC[C@@]31OC(C)=O` (some centres not stated), the TGI in test [1] is 10.5 µM; in test [2], 7.79 µM; in test [3], over 26.1 µM; in [4], over 100 µM; in [5] it was over 100 µM; in test [6], over 100 µM. Further, the TGI in test [7] is over 41 µM; in [8], over 93.7 µM; in test [9], over 100 µM.
Turning to `COc1ccc(N2C(=Nc3ccccc3)SC(=N/S(=O)(=O)c3ccccc3)/C2=N\S(=O)(=O)c2ccccc2)cc1`, the TGI in [1] stood at 42 µM; in test [2], 33.4 µM; in test [3], 53.9 µM; in [4], 26.2 µM; in test [6], 39.6 µM; in test [7], 28.2 µM. This compound gave a TGI in test [9] of 35.4 µM.
For `CCOc1ccc(/C=C(\Cl)c2ccc(OC)c(OC)c2)cc1`, the TGI in test [1] was over 100 µM; in [2] it was over 100 µM; in test [3] it was over 100 µM; in test [5] it was over 100 µM; in test [6], over 100 µM; in test [7] it was 65.5 µM. Also, the TGI in test [8] and in test [9] was over 100 µM each time.
Take `C1CSCCCSCCSCCCSC1`: the TGI in [1], in test [10], in [4], in [5], in [6] and in test [7] was over 100 µM each time. The TGI in [8] and in test [9] was over 100 µM throughout.
Consider `O=C(/C=C/c1ccsc1)c1ccco1`, for which the TGI is 26.3 µM in test [1]; 24 µM in [2]; 14.5 µM in test [10]; 33.4 µM in test [4]; over 37.2 µM in [5]; 24 µM in test [6]. In addition, the TGI in [7] stood at 27 µM; in [8], 27.2 µM; in [9] it was 20.3 µM.
Regarding `CC(C(=O)ON1C(=O)CCC1=O)c1ccc(C(=O)c2ccccc2)s1` (configuration not stated), the TGI in [1], in test [10], in [3], in test [4], in [5] and in test [6] was over 100 µM in each case. The TGI in test [7], in test [8] and in test [9] was over 100 µM in each case.
`Cc1cc(-c2[nH]c(C(=O)O)cc2I)on1`: the TGI in test [1] was over 100 µM; in [3], over 100 µM; in test [4], over 100 µM; in test [5], over 100 µM; in test [6] it was 81.9 µM; in test [7], over 100 µM. Moreover, the TGI in test [8] and in test [9] was over 100 µM in each case.
Take `CC(C)C(C/C=C1\CC(CO)(COC(=O)c2ccccc2)OC1=O)C(C)C` (configuration not stated): the TGI in [1] was 44.8 µM; in test [10], 54.6 µM; in [3], 31.9 µM; in test [4], 43.7 µM; in test [5], 35.6 µM; in test [6], 36 µM. The results for the TGI in test [7], in [8] and in test [9] were 45.4 µM, 28.7 µM and 39.1 µM, respectively.
Regarding `Cc1ccnc2[nH]c(-c3cccc(Cl)c3)cc(=O)c12`, the TGI in [1] is over 43 µM; in test [2] it was 0.0611 µM; in [10] it was over 100 µM; in test [4], over 100 µM; in test [5], over 100 µM; in test [6] it was over 100 µM. The TGI in [7] and in test [8] was over 100 µM throughout.
As for `O=C1CSc2nc3ccccc3n2/C=N\N1`, the TGI in test [1], in test [10], in test [4], in test [5], in [6] and in test [7] was over 100 µM each time. For the same compound, the TGI in [8] and in [9] was over 100 µM in each case.
Regarding `COC(=O)/C=C(\C)C(=O)N(C)c1ccccc1I`, the TGI in [1], in test [10], in test [3], in test [4], in test [5] and in test [6] was over 100 µM throughout. Also, the TGI in test [7], in test [8] and in test [9] was over 100 µM each time.
As for `COc1ccc(O[C@H](COCc2ccccc2)C[C@@H]2COC(C)(C)O2)cc1`, the TGI in test [1], in test [10], in test [3], in test [4], in [5] and in [6] was over 100 µM throughout. Besides, the TGI in test [7], in test [8] and in test [9] was over 100 µM throughout.
On to `CCOC(=O)Oc1cc2c(c(OC)c1OC)-c1ccc(SC)c(=O)cc1C(NC(=O)C(F)(F)F)CC2` (configuration not stated), for which the GI50 in [1] was 0.0146 µM. For the same compound, the TGI in test [2] was 0.0148 µM; in test [4], 0.753 µM and 2.47 µM; in test [7], under 0.001 µM; in test [8], over 100 µM; in test [9], 0.0148 µM.
